The target of one assay is T1, Guinea pig serum ACE (Cavia porcellus, UniProt H0UWL7).
T1 sequence (H0UWL7 33-1234): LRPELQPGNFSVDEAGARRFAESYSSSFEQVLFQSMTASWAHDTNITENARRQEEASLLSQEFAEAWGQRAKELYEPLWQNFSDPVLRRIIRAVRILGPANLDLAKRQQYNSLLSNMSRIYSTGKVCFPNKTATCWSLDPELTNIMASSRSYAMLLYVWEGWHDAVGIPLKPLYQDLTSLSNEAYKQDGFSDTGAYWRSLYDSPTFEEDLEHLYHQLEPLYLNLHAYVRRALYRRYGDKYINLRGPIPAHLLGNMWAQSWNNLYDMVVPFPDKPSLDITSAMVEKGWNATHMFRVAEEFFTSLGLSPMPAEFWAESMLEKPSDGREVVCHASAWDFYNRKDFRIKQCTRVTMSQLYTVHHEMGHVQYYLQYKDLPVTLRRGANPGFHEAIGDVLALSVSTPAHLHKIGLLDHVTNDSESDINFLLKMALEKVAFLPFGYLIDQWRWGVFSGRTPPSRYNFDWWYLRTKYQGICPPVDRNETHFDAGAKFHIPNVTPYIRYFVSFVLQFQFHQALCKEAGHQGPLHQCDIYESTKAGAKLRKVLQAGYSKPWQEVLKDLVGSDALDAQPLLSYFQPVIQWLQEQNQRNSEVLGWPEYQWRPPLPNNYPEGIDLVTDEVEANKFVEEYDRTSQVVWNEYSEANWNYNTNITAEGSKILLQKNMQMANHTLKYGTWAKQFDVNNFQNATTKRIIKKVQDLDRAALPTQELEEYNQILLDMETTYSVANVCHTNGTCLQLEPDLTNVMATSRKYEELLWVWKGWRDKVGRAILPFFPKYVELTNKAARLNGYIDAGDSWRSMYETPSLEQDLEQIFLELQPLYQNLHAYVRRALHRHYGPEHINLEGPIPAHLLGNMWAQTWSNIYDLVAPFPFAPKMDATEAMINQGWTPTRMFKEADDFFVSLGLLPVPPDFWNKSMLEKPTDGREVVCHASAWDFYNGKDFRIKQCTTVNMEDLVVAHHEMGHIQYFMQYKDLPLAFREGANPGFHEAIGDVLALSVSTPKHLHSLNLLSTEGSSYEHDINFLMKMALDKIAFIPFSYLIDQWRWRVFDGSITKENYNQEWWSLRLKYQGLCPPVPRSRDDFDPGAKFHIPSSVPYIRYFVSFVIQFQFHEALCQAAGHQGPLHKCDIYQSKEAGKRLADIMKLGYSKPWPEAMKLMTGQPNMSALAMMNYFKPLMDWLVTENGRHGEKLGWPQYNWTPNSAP
The experiment in a line: Kinetics of (sulfate-stimulated) HipHisLeu hydrolysis. The assay is classed as biochemical. The conditions noted are these: for 1/V / V (reaction velocity): 0.1 M NaCl; for V (reaction velocity): 0.75 M Na2 SO4, pH 8.0, 37° C. How it is done: Kinetics of Sulfate-Stimulated HipHisLeu Hydrolysis
In each assay, 50 μl of Guinea pig serum diluted 1-20 (v/v) in the reaction buffer was mixed with 50 μl of buffer containing sufficient ^3 H-HipHisLeu to provide approximately 100,000 cpm total, together with sufficient unlabeled HipHisLeu to produce the desired substrate concentrations, as indicated in Table 2. […] The reaction mixture was then extracted with 1 ml ethyl acetate. 500 μl of the ethyl acetate fraction was sampled and counted in a scintillation counter.

In assay [1] the test system is ACE. The experiment in a line: pH dependence of ACE activity. It counts as biochemical. The source says: (§1) The enzyme is active over a broad pH range with a maximum around pH 8.0, but is at least about 50% active in the range pH 7.0-pH 8.8, for both HipHisLeu and benzoylPheAlaPro. Although the enzyme is active in a variety of buffer systems known in the art, it is preferred for convenience, when using benzoylPheAlaPro as substrate, to conduct the assays in 0.05 M Hepes buffer, pH 8.0 containing 0.15 M sodium chloride. Detailed protocols for carrying out the assay are given in the examples. […] The preferred concentration range is 1×10^-9 M to 7×10^- 5 M.

Assay [2] concerns ACE. In words: Sulfate and chloride effects on ACE catalysed hydrolysis (general description). It counts as biochemical. To be noted: sulfate present.
Description: An assay for ACE, using HipHisLeu as substrate, is herewith described. The assay is more sensitive than any heretofore disclosed using HipHisLeu as substrate. Maximum sensitivity is achieved by the inclusion of sulfate ions, preferably as sodium sulfate, in the reaction mixture. When 0.1 M NaCl is present in the reaction mixture, sulfate ions are stimulatory from 0.1 M to at least 1.1 M. Maximum stimulation occurs in the range from 0.75 M to 1.1 M Na2 SO4.
An even more sensitive assay for ACE activity has been developed using the novel compound ^3 H-benzoylPheAlaPro as substrate. This new substrate can be used to assay ACE in human urine in incubations as short as 15 minutes. The response of this substrate to ions is strikingly different from the response of HipHisLeu. […] This difficulty has been solved by the proper choice of extracting solvent. While a variety of organic solvents may be suitable for the extraction step, it is preferred to employ toluene. Approximately 88% of ^3 H-benzoylPhe enters the toluene phase while only 6% of the unhydrolyzed substrate enters the toluene phase, when toluene and the acidified reaction mixture are in approximately equal volumes at room temperatures.
as §1

The subject of a further assay is ACE from rabbit lung. The conditions noted are these: sodium chloride removed from reaction medium; cited from earlier work.

Peptide text beside a SMILES is read from it. * marks the point of attachment. Bz = O=C(c1ccccc1)*

On to `CC(C)C[C@H](NC(=O)[C@H](Cc1c[nH]cn1)NC(=O)CNC(=O)c1ccccc1)C(=O)O` [HipHisLeu] (Bz-Gly-His-Leu-OH), for which the Vmax (as a rule, the rate approached at saturating substrate) on Guinea pig serum ACE (0.05 M Hepes, pH 8.0, 0.1 M NaCl, 0.75 M Na2 SO4, serum diluted 1-20) was determined as 5.59 nmol/min/mL. Further, the “reduction of Km” value on Guinea pig serum ACE (0.75 M Na2 SO4 in reaction mixture containing 0.1 M NaCl) is recorded as “about 15 fold”. Further, the 1/V is reported as 3.33 nmole^-1 · min .multi at Guinea pig serum ACE (HipHisLeu 0.01 mM, 0.75 M Na2 SO4); 1.92 nmole^-1 · min .multi at Guinea pig serum ACE (HipHisLeu 0.02 mM, 0.75 M Na2 SO4); 1.35 nmole^-1 · min .multi on Guinea pig serum ACE (HipHisLeu 0.03 mM, 0.75 M Na2 SO4); 0.78 nmole^-1 · min .multi at Guinea pig serum ACE (HipHisLeu 0.04 mM, 0.75 M Na2 SO4); 0.88 nmole^-1 · min .multi on Guinea pig serum ACE (HipHisLeu 0.05 mM, 0.75 M Na2 SO4); 0.78 nmole^-1 · min .multi at Guinea pig serum ACE (HipHisLeu 0.06 mM, 0.75 M Na2 SO4). The 1/V is given as 0.47 nmole^-1 · min .multi at Guinea pig serum ACE (HipHisLeu 0.07 mM, 0.75 M Na2 SO4) and 0.57 nmole^-1 · min .multi at Guinea pig serum ACE (HipHisLeu 0.08 mM, 0.75 M Na2 SO4). The “V (reaction velocity)” value on Guinea pig serum ACE (HipHisLeu 0.01 mM) is 0.30 nmol/min/mL; on Guinea pig serum ACE (HipHisLeu 0.02 mM), 0.52 nmol/min/mL; at Guinea pig serum ACE (HipHisLeu 0.03 mM), 0.74 nmol/min/mL; at Guinea pig serum ACE (HipHisLeu 0.04 mM), 1.28 nmol/min/mL; on Guinea pig serum ACE (HipHisLeu 0.05 mM) it was 1.14 nmol/min/mL; on Guinea pig serum ACE (HipHisLeu 0.06 mM) it was 1.28 nmol/min/mL. In addition, the figures for the “V (reaction velocity)” value on Guinea pig serum ACE (HipHisLeu 0.07 mM) and on Guinea pig serum ACE (HipHisLeu 0.08 mM) were 2.14 nmol/min/mL and 1.76 nmol/min/mL, respectively. The “decrease in Km” value on Guinea pig serum ACE (sulfate ion 0.75-1.1 M vs. without) is reported as 14 fold. Besides, the “pH of maximum activity” value in the assay with ACE [1] was ~8.0 pH. Further, the “activity of enzyme (relative to maximum)” value with ACE [1] (range pH 7.0-pH 8.8) is reported as “at least 50%”. For the same molecule, the “dependence of hydrolysis on added chloride” value in the assay with ACE [2] is on record as “can be carried out in the absence of added chloride, if sulfate is present”. In addition, in the assay with ACE from rabbit lung, the “inhibition on removal of sodium chloride” value was 92%.

(Values after patent publication US4260682A, “High sensitivity assays for angiotensin converting enzyme” (priority 1979, dated 1981).)
